How the values were obtained:
[1] = Anxiolytic activity, X-labyrinth test (elevated plus maze); assay type: in vivo; conditions: 30 mg/kg per os
Procedure: (§1) Results obtained on the products of the present invention are presented in the following and are expressed in percentage of increase by reference to an untreated control, with the product being administered per os at a dose of 30 mg/kg.

[2] = Anxiolytic activity, Vogel test; assay type: in vivo; conditions: 30 mg/kg per os
Procedure: as §1

Lipoxygenase = biological target: T1, Lipoxygenase (Rattus norvegicus, UniProt P12527); experiment: Inhibition of Lipoxygenase: inhibition of leukotriene B4 production by polymorphonuclear cells stimulated by Ionophore A 23 187; assay type: cell-based; conditions: polymorphonuclear peritoneal cell suspensions
T1 construct: suspensions of polymorphonuclear peritonea of rates stimulated by means of the Ionophore A 23 187; endogenous in cells; host or cells: rat peritoneal polymorphonuclear cells
T1 sequence (P12527 1-673): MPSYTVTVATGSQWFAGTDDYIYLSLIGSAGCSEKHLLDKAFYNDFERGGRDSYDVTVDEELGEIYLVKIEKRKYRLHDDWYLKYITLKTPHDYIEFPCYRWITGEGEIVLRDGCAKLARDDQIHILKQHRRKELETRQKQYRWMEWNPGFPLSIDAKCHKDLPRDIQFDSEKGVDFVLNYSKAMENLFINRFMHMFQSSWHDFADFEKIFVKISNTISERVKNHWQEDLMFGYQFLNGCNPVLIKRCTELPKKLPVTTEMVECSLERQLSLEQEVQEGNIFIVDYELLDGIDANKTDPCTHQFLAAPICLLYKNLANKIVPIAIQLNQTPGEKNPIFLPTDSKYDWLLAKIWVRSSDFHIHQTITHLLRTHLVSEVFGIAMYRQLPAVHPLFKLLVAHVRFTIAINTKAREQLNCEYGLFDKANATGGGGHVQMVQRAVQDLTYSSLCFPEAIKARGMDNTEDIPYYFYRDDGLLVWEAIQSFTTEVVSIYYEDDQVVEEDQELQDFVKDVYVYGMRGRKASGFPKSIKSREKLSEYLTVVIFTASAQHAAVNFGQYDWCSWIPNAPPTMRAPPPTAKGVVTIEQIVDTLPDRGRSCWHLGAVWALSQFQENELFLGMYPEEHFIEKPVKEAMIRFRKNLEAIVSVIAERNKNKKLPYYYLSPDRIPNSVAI

SMILES	X-labyrinth test: percentage of increase by reference to an untreated control [1] [%]	Vogel test: percentage of increase by reference to an untreated control [2] [%]	IC50 (Lipoxygenase) [µM]
COc1nn(-c2cccc(C(F)(F)F)c2)c(C)cc1=O [Compound 2, 1-Metatrifluoromethylphenyl-1,4-dihydro-3-methoxy-4-oxo-6-methylpyridazine]	95	95	–
C=CCOc1nn(-c2cccc(C(F)(F)F)c2)c(C)cc1=O [Compound 5, 1-Metatrifluoromethylphenyl-1,4-dihydro-3-allyloxy-4-oxo-6-methylpyridazine]	–	48	–
Cc1cc(=O)c(OCc2ccccc2)nn1-c1cccc(C(F)(F)F)c1 [Compound 6, 1-Metatrifluoromethylphenyl-1,4-dihydro-3-benzyloxy-4-oxo-6-methylpyridazine]	18	98	1.25
COc1nn(-c2cccc(C(F)(F)F)c2)ccc1=O [Compound 9, 1-Metatrifluoromethylphenyl-1,4-dihydro-3-methoxy-4-oxopyridazine]	165	52	–
O=c1ccn(-c2cccc(C(F)(F)F)c2)nc1OCc1ccccc1 [Compound 10, 1-Metatrifluoromethylphenyl-1,4-dihydro-3-benzyloxy-4-oxopyridazine]	–	38	25
Cc1cc(=O)c(OCc2ccc3ccccc3n2)nn1-c1cccc(C(F)(F)F)c1 [Compound 11, 1-Metatrifluoromethylphenyl-1,4-dihydro-3-(2-quinolylmethoxy)-4-oxo-6-methylpyridazine]	–	–	1.1

From US5254554A, “3-hydroxy-substituted-1-phenyl-1,4-dihydro-4-oxopyridazines and derivatives, and use” (Pierre Fabre Medicament, priority 1991, dated 1993)
